This experiment concerns harmaline-induced tremor. In words: harmaline-induced tremor model in rats. The class given is in vivo. An excerpt: The identification of a compound as a histamine H3 inverse agonist or a histamine H3 antagonist may be readily determined without undue experimentation by methodology well known in the art. The efficacy of a histamine H3 inverse agonist or a histamine H3 antagonist in treating tremor may be readily determined without undue experimentation by methodology well known in the art, for example the harmaline-induced tremor model in rats, Sinton, et al., Pflugers Archive Eur. J. Phys., 414(1) 31-36 (1989). […] The ability of the histamine H3 inverse agonist or histamine H3 antagonist to be used in the present invention to treat tremor or movement disorders may be determined by these methods.

With `N#Cc1ccc(-c2cnc(OC3CCN(C4CCCC4)CC3)nc2)cc1` [2-(1-cyclopentylpiperidine-4-yloxy)-5-(4-cyanophenyl)pyrimidine], the “reversal of harmaline-induced tremor” value was 8.4% (dose of 1 mg/kg), 63.3% (dose of 3 mg/kg) and 84.4% (dose of 10 mg/kg).

These data come from patent publication US20080242657A1, “Treatment of Tremor with Histamine H3 Inverse Agonists or Hist Amine H3 Antagonists” (priority 2004, published 2008).
